Activity calls are given as the source filed them. How the calls were made is not given here.

The series deals with rodent carcinogenicity bioassays, tumor incidence. Put plainly: CCRIS carcinogenicity studies. An outline of the steps:
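NCI-built, expert-reviewed records of carcinogenicity and related test outcomes (mutagenicity, tumor promotion/inhibition) compiled from published and report sources, historical span 1985-2011, not updated.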

As for `NC(=O)N/N=C/c1ccc([N+](=O)[O-])o1`, the carcinogen call reads like this: (Species: MOUSE, Strain/Sex: B6C3F1/FEMALE, Route: ORAL, Dose: 0, 150, 310 PPM IN DIET (STUDY DURATION: 2 YR), Dose: 0, 150, 310 PPM IN DIET (STUDY DURATION: 2 YR), Tumor Site: Type of Lesion: OVARIES: GRANULOSA CELL TUMOR) “active; positive”; (Species: MOUSE, Strain/Sex: B6C3F1/FEMALE, Route: ORAL, Dose: 0, 150, 310 PPM IN DIET FOR 103 WK (STUDY DURATION: 105 WK), Dose: 0, 150, 310 PPM IN DIET FOR 103 WK (STUDY DURATION: 105 WK), Tumor Site: Type of Lesion: OVARY: GRANULOSA CELL TUMOR, OVARY: GRANULOSA CELL TUMOR OR LUTEOMA;OVARY: MIXED TUMOR,BENIGN, OVARY: TUBULAR CELL ADENO, Tumor Site: Type of Lesion: OVARY: GRANULOSA CELL TUMOR, OVARY: GRANULOSA CELL TUMOR OR LUTEOMA;OVARY: MIXED TUMOR,BENIGN, OVARY: TUBULAR CELL ADENO) “active; positive”; (Species: MOUSE, Strain/Sex: B6C3F1/MALE, Route: ORAL, Dose: 0, 150, 310 PPM IN DIET (STUDY DURATION: 2 YR), Dose: 0, 150, 310 PPM IN DIET (STUDY DURATION: 2 YR)) “inactive; negative”; (Species: MOUSE, Strain/Sex: B6C3F1/MALE, Route: ORAL, Dose: 0, 150, 310 PPM IN DIET FOR 103 WK (STUDY DURATION: 105 WK), Dose: 0, 150, 310 PPM IN DIET FOR 103 WK (STUDY DURATION: 105 WK)) “inactive; negative”; (Species: MOUSE, Strain/Sex: ICR/MALE, FEMALE, Route: SUBCUTANEOUS, Dose: 0, 75 UG/G ONCE WITHIN 12 HR OF BIRTH AND ONCE ON DAYS 7,14 AND 21 OF AGE (STUDY DURATION: 32 WK), Tumor Site: Type of Lesion: LUNG: PAPILLARY ADENOMA) “active; positive”; (Species: MOUSE, Strain/Sex: ICR/MALE, FEMALE, Route: TRANSPLACENTAL, Dose: 0, 75 UG/G ADMINISTERED SUBCUTANEOUSLY TO MOTHERS ON DAYS 13, 15 AND 17 OF GESTATION (STUDY DURATION: 33 WK)) “inactive; negative”. The carcinogen call by setting is: (Species: RAT, Strain/Sex: F344/FEMALE, Route: ORAL, Dose: 0, 310, 620 PPM IN DIET FOR 103 WK (STUDY DURATION: 105 WK), Dose: 0, 310, 620 PPM IN DIET FOR 103 WK (STUDY DURATION: 105 WK), Tumor Site: Type of Lesion: MAMMARY GLAND: FIBROADENOMA) “active; positive”; (Species: RAT, Strain/Sex: F344/MALE, Route: ORAL, Dose: 0, 310, 620 PPM IN DIET FOR 103 WK (STUDY DURATION: 105 WK), Dose: 0, 310, 620 PPM IN DIET FOR 103 WK (STUDY DURATION: 105 WK), Tumor Site: Type of Lesion: SEBACEOUS GLAND: ADENOMA, SKIN: TRICHOEPITHELIOMA, TUNICA VAGINALIS: MESOTHELIOMA, PREPUTIAL GLAND: ADENOMA, CARCINOMA, Tumor Site: Type of Lesion: SEBACEOUS GLAND: ADENOMA, SKIN: TRICHOEPITHELIOMA, TUNICA VAGINALIS: MESOTHELIOMA, PREPUTIAL GLAND: ADENOMA, CARCINOMA) “equivocal”; (Species: RAT, Strain/Sex: F344 INBRED/FEMALE, Route: ORAL, Dose: 0, 310, 620 PPM IN DIET (STUDY DURATION: 2 YR), Dose: 0, 310, 620 PPM IN DIET (STUDY DURATION: 2 YR), Tumor Site: Type of Lesion: MAMMARY GLAND: FIBROADENOMA) “active; positive”.

With `CCC(C)Br` (stereo not given), the carcinogen call (Species: MOUSE, Route: INTRAPERITONEAL, Tumor Site: Type of Lesion: LUNG) is “active; positive”.

Turning to `O=[N+]([O-])c1ccc2ccc3c4ccccc4ccc3c2c1`, the carcinogen call (Species: MOUSE, Strain/Sex: ICR/FEMALE, Route: INTRAPERITONEAL, Dose: 0, 100 NMOL (TOTAL DOSE) ADMINISTERED IN 3 SUBDOSES OF 1/7, 2/7, AND 4/7 ON DAYS 1, 8 AND 15 OF LIFE, RESPECTIVELY (STUD) was “inactive; negative” and the carcinogen call (Species: MOUSE, Strain/Sex: ICR/MALE, Route: INTRAPERITONEAL, Dose: 0, 100 NMOL (TOTAL DOSE) ADMINISTERED IN 3 SUBDOSES OF 1/7, 2/7, AND 4/7 ON DAYS 1, 8 AND 15 OF LIFE, RESPECTIVELY (STUD) was “inactive; negative”.

As for `O=c1ccc(O)n[nH]1`, the carcinogen call (Species: Mouse, Strain/Sex: Charles River CD-1/Female (50/Group), Route: Oral, Dose: 0, 189, 598, 1811 mg/kg/day of 90% maleic hydrazide potassium salt in diet for 98 wk, study duration 98 wk, Dose: 0, 189, 598, 1811 mg/kg/day of 90% maleic hydrazide potassium salt in diet for 98 wk, study duration 98 wk) was “inactive; negative”; the carcinogen call (Species: Mouse, Strain/Sex: Charles River CD-1/Male (50/Group), Route: Oral, Dose: 0, 157, 509, 1545 mg/kg/day of 90% maleic hydrazide potassium salt in diet for 98 wk, study duration 98 wk, Dose: 0, 157, 509, 1545 mg/kg/day of 90% maleic hydrazide potassium salt in diet for 98 wk, study duration 98 wk) is “inactive; negative”; the carcinogen call (Species: Rat, Strain/Sex: Sprague-Dawley/Female (50/Group), Route: Oral, Dose: 0, 25, 500, 1000 mg/kg/day of 72.5-73.8% as maleic hydrazide in diet for 104 wk, study duration 104 wk, Dose: 0, 25, 500, 1000 mg/kg/day of 72.5-73.8% as maleic hydrazide in diet for 104 wk, study duration 104 wk) was “inactive; negative”; the carcinogen call (Species: Rat, Strain/Sex: Sprague-Dawley/Male (50/Group), Route: Oral, Dose: 0, 25, 500, 1000 mg/kg/day of 72.5-73.8% as maleic hydrazide in diet for 104 wk, study duration 104 wk, Dose: 0, 25, 500, 1000 mg/kg/day of 72.5-73.8% as maleic hydrazide in diet for 104 wk, study duration 104 wk) was “inactive; negative”.

Regarding `O=C1OCCO1`, the carcinogen call is, setting by setting: (Species: RAT, Strain/Sex: STRAIN-CD/FEMALE, Route: ORAL, Dose: 25000, 50000 PPM IN DIET FOR 78 WK) “inactive; negative”; (Species: RAT, Strain/Sex: STRAIN-CD/MALE, Route: ORAL, Dose: 25000, 44360 PPM IN DIET FOR 78 WK, TWA) “inactive; negative”.

For the compound `NC(N)=Nc1nc(CSCCN=CNS(=O)(=O)c2ccc(Br)cc2)cs1`, the carcinogen call (Species: MOUSE, Strain/Sex: CD-1/FEMALE, Route: ORAL, Dose: 0, 50, 200, 500 MG/KG FOR 18 MO (STUDY DURATION: 18 MO), Dose: 0, 50, 200, 500 MG/KG FOR 18 MO (STUDY DURATION: 18 MO)) is “inactive; negative”; the carcinogen call (Species: MOUSE, Strain/Sex: CD-1/MALE, Route: ORAL, Dose: 0, 50, 200, 500 MG/KG FOR 18 MO (STUDY DURATION: 18 MO), Dose: 0, 50, 200, 500 MG/KG FOR 18 MO (STUDY DURATION: 18 MO)) was “inactive; negative”; the carcinogen call (Species: RAT, Strain/Sex: SPRAGUE-DAWLEY/FEMALE, Route: ORAL, Dose: 0, 50, 200, 500 MG/KG FOR 13 MO THEN 0, 50, 150, 300, 500 MG/KG FOR DURATION OF STUDY (STUDY DURATION: 24 MO), Dose: 0, 50, 200, 500 MG/KG FOR 13 MO THEN 0, 50, 150, 300, 500 MG/KG FOR DURATION OF STUDY (STUDY DURATION: 24 MO)) was “inactive; negative”; the carcinogen call (Species: RAT, Strain/Sex: SPRAGUE-DAWLEY/FEMALE, Route: ORAL, Dose: INITIALLY: 0, 50, 200, 500 MG/KG BW, THEN 0, 50, 150, 300, 500 (200 MG/KG DOSE LOWERED TO 150 MG/KG AFTER 13 MONTHS AND, Dose: INITIALLY: 0, 50, 200, 500 MG/KG BW, THEN 0, 50, 150, 300, 500 (200 MG/KG DOSE LOWERED TO 150 MG/KG AFTER 13 MONTHS AND) was “inactive; negative”; the carcinogen call (Species: RAT, Strain/Sex: SPRAGUE-DAWLEY/MALE, Route: ORAL, Dose: 0, 50, 200, 500 MG/KG FOR 13 MO THEN 0, 50, 150, 300, 500 MG/KG FOR DURATION OF STUDY (STUDY DURATION: 24 MO), Dose: 0, 50, 200, 500 MG/KG FOR 13 MO THEN 0, 50, 150, 300, 500 MG/KG FOR DURATION OF STUDY (STUDY DURATION: 24 MO)) is “inactive; negative”; the carcinogen call (Species: RAT, Strain/Sex: SPRAGUE-DAWLEY/MALE, Route: ORAL, Dose: INITIALLY: 0, 50, 200, 500 MG/KG BW, THEN 0, 50, 150, 300, 500 (200 MG/KG DOSE LOWERED TO 150 MG/KG AFTER 13 MONTHS AND, Dose: INITIALLY: 0, 50, 200, 500 MG/KG BW, THEN 0, 50, 150, 300, 500 (200 MG/KG DOSE LOWERED TO 150 MG/KG AFTER 13 MONTHS AND) was “inactive; negative”.

Regarding `N[C@@H](CCC(=O)N[C@@H](CSc1cc(O)c(SC[C@H](NC(=O)CC[C@H](N)C(=O)O)C(=O)NCC(=O)O)c(SC[C@H](NC(=O)CC[C@H](N)C(=O)O)C(=O)NCC(=O)O)c1O)C(=O)NCC(=O)O)C(=O)O`, the carcinogen call (Species: RAT, Strain/Sex: EKER(TSC2 MUTANT)/MALE, Route: INTRAPERITIONEAL, Dose: 0, 2.5 UMOL/KG BW 5 BW 5 D/WK FOR 4 MO FOLLOWED BY 3.5 UMOL/KG BW 5 D/WK FOR 6 MO (STUDY DURATION: 10 MO), Tumor Site: Type of Lesion: KIDNEY: ADENOMA OR CARCINOMA) is “active; positive”.

The values above are taken from PubChem BioAssay AID1259411 (Chemical Carcinogenesis Research Information System (CCRIS), 2018).
